Measured values taken from patent publication US20100267561A1, “HERBICIDAL PYRIDAZINONE DERIVATIVES” (priority 2007, published 2010).

Experiments:
Type in all cases: in vivo
[1] = system: ducksalad (Heteranthera limosa); experiment: Test B flooded paddy test plant response
How it was run: (§1)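 Compounds were added directly to paddy water over 2-leaf-stage plants in pots flooded 3 cm above soil, water depth maintained. Visual injury scored against controls after 13 to 15 days in greenhouse, 0 (none) to 100 (complete control); dash indicates no result.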

[2] = system: umbrella sedge (Cyperus difformis); experiment: Test B flooded paddy test plant response
How it was run: as §1

[3] = system: Italian ryegrass (Lolium multiflorum); experiment: Test C pre-/postemergence plant response; conditions: Preemergence
How it was run: (§2)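 Pre- and postemergence treatment, visual 0–100 rating vs controls at 15–25 days.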

[4] = system: annual bluegrass (Poa annua); experiment: Test C pre-/postemergence plant response; conditions: Preemergence
How it was run: as §2

[5] = system: blackgrass (Alopecurus myosuroides); experiment: Test C pre-/postemergence plant response; conditions: Preemergence
How it was run: as §2

[6] = system: canarygrass (Phalaris minor); experiment: Test C pre-/postemergence plant response; conditions: Preemergence
How it was run: as §2

[7] = system: downy bromegrass (Bromus tectorum); experiment: Test C pre-/postemergence plant response; conditions: Preemergence
How it was run: as §2

[8] = system: green foxtail (Setaria viridis); experiment: Test C pre-/postemergence plant response; conditions: Preemergence
How it was run: as §2

[9] = system: pigweed (Amaranthus retroflexus); experiment: Test C pre-/postemergence plant response; conditions: Preemergence
How it was run: as §2

[10] = system: spring barley (Hordeum vulgare); experiment: Test C pre-/postemergence plant response; conditions: Preemergence
How it was run: as §2

[11] = system: spring wheat (Triticum aestivum); experiment: Test C pre-/postemergence plant response; conditions: Preemergence
How it was run: as §2

[12] = system: wild mustard (Sinapis arvensis); experiment: Test C pre-/postemergence plant response; conditions: Preemergence
How it was run: as §2

[13] = system: wild oat (Avena fatua); experiment: Test C pre-/postemergence plant response; conditions: Preemergence
How it was run: as §2

[14] = system: windgrass (Apera spica-venti); experiment: Test C pre-/postemergence plant response; conditions: Preemergence
How it was run: as §2

[15] = system: winter barley (Hordeum vulgare); experiment: Test C pre-/postemergence plant response; conditions: Preemergence
How it was run: as §2

[16] = system: winter wheat (Triticum aestivum); experiment: Test C pre-/postemergence plant response; conditions: Preemergence
How it was run: as §2

[17] = Flood (flooded paddy test), 62 g ai/ha, scale 0 to 100, 0 no effect, 100 complete control
[18] = Flood (flooded paddy test), 125 g ai/ha, scale 0 to 100, 0 no effect, 100 complete control
[19] = Flood (flooded paddy test), 250 g ai/ha, scale 0 to 100, 0 no effect, 100 complete control
[20] = Flood, 31 g ai/ha, scale 0 to 100
[21] = 8 g ai/ha, scale 0 to 100 (0 no effect, 100 complete control)
[22] = 16 g ai/ha, scale 0 to 100 (0 no effect, 100 complete control)
[23] = 31 g ai/ha, scale 0 to 100 (0 no effect, 100 complete control)
[24] = 62 g ai/ha, scale 0 to 100, 0 no effect, 100 complete control

CCc1cc(-c2ccc(Cl)cc2)nn1-c1c(OC(=O)OC(C)C)cnn(C)c1=O [Compound 41]
Plant response rating, Ducksalad [1, 17]: 0
Plant response rating, Ducksalad [1, 18]: 40
Plant response rating, Ducksalad [1, 19]: 70
Plant response rating, Ducksalad [1, 20]: 0
Plant response rating, Sedge, Umbrella [2, 17]: 0
Plant response rating, Sedge, Umbrella [2, 18]: 0
Plant response rating, Sedge, Umbrella [2, 19]: 85
Plant response rating, Sedge, Umbrella [2, 20]: 0
Plant response rating, Ryegrass, Italian [3, 21]: 100
Plant response rating, Ryegrass, Italian [3, 22]: 100
Plant response rating, Ryegrass, Italian [3, 23]: 100
Plant response rating, Ryegrass, Italian [3, 24]: 100
Plant response rating, Bluegrass [4, 21]: 0
Plant response rating, Bluegrass [4, 22]: 0
Plant response rating, Blackgrass [5, 21]: 100
Plant response rating, Blackgrass [5, 22]: 100
Plant response rating, Blackgrass [5, 23]: 100
Plant response rating, Blackgrass [5, 24]: 100
Plant response rating, Canarygrass [6, 21]: 50
Plant response rating, Canarygrass [6, 22]: 80
Plant response rating, Canarygrass [6, 23]: 98
Plant response rating, Canarygrass [6, 24]: 100
Plant response rating, Bromegrass, Downy [7, 21]: 0
Plant response rating, Bromegrass, Downy [7, 22]: 50
Plant response rating, Bromegrass, Downy [7, 23]: 50
Plant response rating, Bromegrass, Downy [7, 24]: 80
Plant response rating, Foxtail, Green [8, 21]: 98
Plant response rating, Foxtail, Green [8, 22]: 100
Plant response rating, Foxtail, Green [8, 23]: 100
Plant response rating, Foxtail, Green [8, 24]: 100
Plant response rating, Pigweed [9, 21]: 0
Plant response rating, Pigweed [9, 22]: 0
Plant response rating, Pigweed [9, 23]: 0
Plant response rating, Pigweed [9, 24]: 0
Plant response rating, Barley, Spring [10, 21]: 0
Plant response rating, Barley, Spring [10, 22]: 65
Plant response rating, Barley, Spring [10, 23]: 75
Plant response rating, Barley, Spring [10, 24]: 90
Plant response rating, Wheat, Spring [11, 21]: 0
Plant response rating, Wheat, Spring [11, 22]: 50
Plant response rating, Wheat, Spring [11, 23]: 75
Plant response rating, Wheat, Spring [11, 24]: 95
Plant response rating, Mustard, Wild [12, 21]: 0
Plant response rating, Mustard, Wild [12, 23]: 0
Plant response rating, Mustard, Wild [12, 24]: 0
Plant response rating, Oat, Wild [13, 21]: 65
Plant response rating, Oat, Wild [13, 22]: 75
Plant response rating, Oat, Wild [13, 23]: 95
Plant response rating, Oat, Wild [13, 24]: 95
Plant response rating, Windgrass [14, 21]: 65
Plant response rating, Windgrass [14, 22]: 98
Plant response rating, Windgrass [14, 23]: 100
Plant response rating, Windgrass [14, 24]: 100
Plant response rating, Barley, Winter [15, 21]: 10
Plant response rating, Barley, Winter [15, 22]: 25
Plant response rating, Barley, Winter [15, 23]: 70
Plant response rating, Barley, Winter [15, 24]: 80
Plant response rating, Wheat, Winter [16, 21]: 0
Plant response rating, Wheat, Winter [16, 22]: 40
Plant response rating, Wheat, Winter [16, 23]: 60
Plant response rating, Wheat, Winter [16, 24]: 98

Cc1cc(-c2ccc(Cl)cc2)nn1-c1c(OC(=O)c2ccccc2)cnn(C)c1=O [Compound 48]
Plant response rating, Ducksalad [1, 17]: 0
Plant response rating, Ducksalad [1, 18]: 0
Plant response rating, Ducksalad [1, 19]: 30
Plant response rating, Ducksalad [1, 20]: 0
Plant response rating, Sedge, Umbrella [2, 17]: 0
Plant response rating, Sedge, Umbrella [2, 18]: 0
Plant response rating, Sedge, Umbrella [2, 19]: 50
Plant response rating, Sedge, Umbrella [2, 20]: 0
Plant response rating, Ryegrass, Italian [3, 21]: 40
Plant response rating, Ryegrass, Italian [3, 22]: 40
Plant response rating, Ryegrass, Italian [3, 23]: 90
Plant response rating, Ryegrass, Italian [3, 24]: 100
Plant response rating, Bluegrass [4, 21]: 0
Plant response rating, Bluegrass [4, 22]: 0
Plant response rating, Bluegrass [4, 23]: 0
Plant response rating, Bluegrass [4, 24]: 0
Plant response rating, Blackgrass [5, 21]: 35
Plant response rating, Blackgrass [5, 22]: 50
Plant response rating, Blackgrass [5, 23]: 65
Plant response rating, Blackgrass [5, 24]: 98
Plant response rating, Canarygrass [6, 21]: 0
Plant response rating, Canarygrass [6, 22]: 0
Plant response rating, Canarygrass [6, 23]: 85
Plant response rating, Canarygrass [6, 24]: 95
Plant response rating, Bromegrass, Downy [7, 21]: 0
Plant response rating, Bromegrass, Downy [7, 22]: 0
Plant response rating, Bromegrass, Downy [7, 23]: 0
Plant response rating, Bromegrass, Downy [7, 24]: 40
Plant response rating, Foxtail, Green [8, 21]: 35
Plant response rating, Foxtail, Green [8, 22]: 95
Plant response rating, Foxtail, Green [8, 23]: 100
Plant response rating, Foxtail, Green [8, 24]: 100
Plant response rating, Pigweed [9, 21]: 0
Plant response rating, Pigweed [9, 22]: 0
Plant response rating, Pigweed [9, 23]: 0
Plant response rating, Pigweed [9, 24]: 0
Plant response rating, Barley, Spring [10, 21]: 0
Plant response rating, Barley, Spring [10, 22]: 15
Plant response rating, Barley, Spring [10, 23]: 30
Plant response rating, Barley, Spring [10, 24]: 80
Plant response rating, Wheat, Spring [11, 21]: 0
Plant response rating, Wheat, Spring [11, 22]: 35
Plant response rating, Wheat, Spring [11, 23]: 60
Plant response rating, Wheat, Spring [11, 24]: 75
Plant response rating, Mustard, Wild [12, 23]: 0
Plant response rating, Mustard, Wild [12, 24]: 0
Plant response rating, Oat, Wild [13, 21]: 0
Plant response rating, Oat, Wild [13, 22]: 0
Plant response rating, Oat, Wild [13, 23]: 50
Plant response rating, Oat, Wild [13, 24]: 70
Plant response rating, Windgrass [14, 21]: 0
Plant response rating, Windgrass [14, 22]: 0
Plant response rating, Windgrass [14, 23]: 35
Plant response rating, Windgrass [14, 24]: 80
Plant response rating, Barley, Winter [15, 21]: 0
Plant response rating, Barley, Winter [15, 22]: 0
Plant response rating, Barley, Winter [15, 23]: 0
Plant response rating, Barley, Winter [15, 24]: 70
Plant response rating, Wheat, Winter [16, 21]: 0
Plant response rating, Wheat, Winter [16, 22]: 0
Plant response rating, Wheat, Winter [16, 23]: 20
Plant response rating, Wheat, Winter [16, 24]: 70
